# Data: ChEMBL document CHEMBL2311336 (Bioorg Med Chem Lett, 2013)
# Molecular target: Tumour suppressor p53/oncoprotein Mdm2 (Homo sapiens, UniProt Q00987)
# Experiment: Inhibition of human His-tagged p53/GST-tagged MDM2 interaction after 60 mins by chemiluminescence assay
# Assay type: protein assay
# Sequence of Tumour suppressor p53/oncoprotein Mdm2 (P04637 whole entry): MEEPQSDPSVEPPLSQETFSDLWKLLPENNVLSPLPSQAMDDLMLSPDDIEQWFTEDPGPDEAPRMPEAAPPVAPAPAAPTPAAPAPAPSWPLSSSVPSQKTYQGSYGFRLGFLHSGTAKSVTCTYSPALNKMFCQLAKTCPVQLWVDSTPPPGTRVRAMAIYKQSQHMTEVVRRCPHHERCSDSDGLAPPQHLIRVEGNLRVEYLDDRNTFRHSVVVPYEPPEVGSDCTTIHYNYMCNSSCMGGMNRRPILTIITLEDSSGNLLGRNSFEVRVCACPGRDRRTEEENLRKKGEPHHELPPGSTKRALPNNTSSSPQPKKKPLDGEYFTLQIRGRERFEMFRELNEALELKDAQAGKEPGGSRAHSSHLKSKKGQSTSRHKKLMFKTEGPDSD
# Sequence of Tumour suppressor p53/oncoprotein Mdm2 (Q00987 whole entry): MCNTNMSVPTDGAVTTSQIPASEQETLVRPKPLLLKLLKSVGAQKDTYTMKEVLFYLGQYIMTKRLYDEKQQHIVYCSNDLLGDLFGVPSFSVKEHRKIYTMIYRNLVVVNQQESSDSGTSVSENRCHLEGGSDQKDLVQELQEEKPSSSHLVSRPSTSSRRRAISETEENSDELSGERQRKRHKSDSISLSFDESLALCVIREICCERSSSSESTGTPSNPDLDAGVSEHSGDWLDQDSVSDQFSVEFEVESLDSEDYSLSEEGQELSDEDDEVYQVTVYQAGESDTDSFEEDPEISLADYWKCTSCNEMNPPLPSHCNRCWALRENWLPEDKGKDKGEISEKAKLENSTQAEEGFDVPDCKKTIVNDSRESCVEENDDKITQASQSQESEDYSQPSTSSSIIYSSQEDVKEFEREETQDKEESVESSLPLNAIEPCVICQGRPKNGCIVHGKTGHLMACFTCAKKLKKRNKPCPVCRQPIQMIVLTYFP
row,Compound,IC50 [nM]
1,CC(C)C1=C(C(=O)N2CCNC(=O)C2)SC2=N[C@@](C)(c3ccc(Cl)cc3)[C@@H](c3ccc(Cl)cc3)N21,92
2,CC(C)C1=C(C(=O)N2CCNC(=O)C2)SC2=N[C@](C)(c3ccc(Cl)cc3)[C@H](c3ccc(Cl)cc3)N21,1500
3,CC(C)C1=C(C(=O)N(C)C)SC2=N[C@@](C)(c3ccc(Cl)cc3)[C@@H](c3ccc(Cl)cc3)N21,26
4,COCCN(C)C(=O)[C@@H]1CCCN1C(=O)C1=C(C(C)C)N2C(=N[C@@](C)(c3ccc(Cl)cc3)[C@H]2c2ccc(Cl)cc2)S1,46
5,CC(C)C1=C(C(=O)N2CCC[C@H]2C(=O)N2CCOCC2)SC2=N[C@@](C)(c3ccc(Cl)cc3)[C@@H](c3ccc(Cl)cc3)N21,26
6,CC(=O)N1CCN(C(=O)[C@@H]2CCCN2C(=O)C2=C(C(C)C)N3C(=N[C@@](C)(c4ccc(Cl)cc4)[C@H]3c3ccc(Cl)cc3)S2)CC1,66
7,CC(C)C1=C(C(=O)N2CCC[C@H]2C(=O)N2CCNC(=O)C2)SC2=N[C@@](C)(c3ccc(Cl)cc3)[C@@H](c3ccc(Cl)cc3)N21,79
8,CC(C)C1=C(C(=O)N2CCC[C@H]2C(=O)N2CCN(C)CC2)SC2=N[C@@](C)(c3ccc(Cl)cc3)[C@@H](c3ccc(Cl)cc3)N21,23
9,CC(C)C1=C(C(=O)N2CCC[C@H]2C(=O)N2C[C@@H](C)N[C@@H](C)C2)SC2=N[C@@](C)(c3ccc(Cl)cc3)[C@@H](c3ccc(Cl)cc3)N21,37
10,CC(C)C1=C(C(=O)N2CCCC[C@H]2C(=O)N(C)C)SC2=NC(C)(c3ccc(Cl)cc3)C(c3ccc(Cl)cc3)N21 (mixture of isomers),170
11,CC(C)C1=C(C(=O)N2CCNC(=O)C2)SC2=NC(C)(c3ccc(Cl)cc3)C(c3ccc(Cl)cc3)N21 (racemic),410
12,CC(C)C1=C(C(N)=O)SC2=NC(C)(c3ccc(Cl)cc3)C(c3ccc(Cl)cc3)N21 (racemic),780
13,CNC(=O)C1=C(C(C)C)N2C(=NC(C)(c3ccc(Cl)cc3)C2c2ccc(Cl)cc2)S1 (racemic),1100
14,CC(C)C1=C(C(=O)N(C)C)SC2=NC(C)(c3ccc(Cl)cc3)C(c3ccc(Cl)cc3)N21 (racemic),42
15,CC(C)C1=C(C(=O)N2CCCC2)SC2=NC(C)(c3ccc(Cl)cc3)C(c3ccc(Cl)cc3)N21 (racemic),200
16,CC(C)C1=C(C(=O)N2CNC(=O)C2)SC2=NC(C)(c3ccc(Cl)cc3)C(c3ccc(Cl)cc3)N21 (racemic),940

# Molecular target: E3 ubiquitin-protein ligase Mdm2 (Homo sapiens, UniProt Q00987, L33E)
# Sequence (Q00987 whole entry L33E, the tested form may be a part): as the sequence (Q00987 whole entry) above, with L33E counted along it
# Experiment: Inhibition of human His-tagged p53 (1 to 132 amino acid residues)/GST-tagged MDM2 L33E mutant (25 to 108 amino acid residues) interaction by HTRF assay
row,Compound,IC50 [nM]
1,CC(C)C1=C(C(=O)N2CC[C@H]2C(=O)N(C)C)SC2=N[C@@](C)(c3ccc(Cl)cc3)[C@@H](c3ccc(Cl)cc3)N21,140
